# Measured values as given in the supplement of paper PMC13380429.
# Columns and labels:
# Details in all cases: 72 h
# Calu-3 [1] = experiment: relative viability EC50 (midpoint between 100% and the lowest measured viability); higher = less toxic
# Vero E6 [2] = experiment: as above
# Caco-2 [3] = experiment: as above
# U2OS [4] = experiment: as above
# HepG2 [5] = experiment: as above
# Calu-3 [6] = experiment: cell viability relative to DMSO; higher = less toxic
# Vero E6 [7] = experiment: as above
# Caco-2 [8] = experiment: as above
# U2OS [9] = experiment: as above
# HepG2 [10] = experiment: as above
# Calu-3 [11] = experiment: drug sensitivity score (DSS) for viability; higher = more toxic; extreme values may be limits of the assay
# Vero E6 [12] = experiment: as above
# Caco-2 [13] = experiment: as above
# U2OS [14] = experiment: as above
# HepG2 [15] = experiment: as above
Structure (SMILES),relative viability EC50 (Calu-3 [1]),relative viability EC50 (Vero E6 [2]),relative viability EC50 (Caco-2 [3]),relative viability EC50 (U2OS [4]),relative viability EC50 (HepG2 [5]),cell viability (Calu-3 [6]; 1 nM),cell viability (Calu-3 [6]; 10 nM),cell viability (Calu-3 [6]; 100 nM),cell viability (Calu-3 [6]; 1000 nM),cell viability (Calu-3 [6]; 10000 nM),cell viability (Vero E6 [7]; 1 nM),cell viability (Vero E6 [7]; 10 nM),cell viability (Vero E6 [7]; 100 nM),cell viability (Vero E6 [7]; 1000 nM),cell viability (Vero E6 [7]; 10000 nM),cell viability (Caco-2 [8]; 1 nM),cell viability (Caco-2 [8]; 10 nM),cell viability (Caco-2 [8]; 100 nM),cell viability (Caco-2 [8]; 1000 nM),cell viability (Caco-2 [8]; 10000 nM),cell viability (U2OS [9]; 1 nM),cell viability (U2OS [9]; 10 nM),cell viability (U2OS [9]; 100 nM),cell viability (U2OS [9]; 1000 nM),cell viability (U2OS [9]; 10000 nM),cell viability (HepG2 [10]; 1 nM),cell viability (HepG2 [10]; 10 nM),cell viability (HepG2 [10]; 100 nM),cell viability (HepG2 [10]; 1000 nM),cell viability (HepG2 [10]; 10000 nM),drug sensitivity score (Calu-3 [11]),drug sensitivity score (Vero E6 [12]),drug sensitivity score (Caco-2 [13]),drug sensitivity score (U2OS [14]),drug sensitivity score (HepG2 [15])
CN1CCC(COc2cnc(-c3cccc(Cn4nc(-c5cccc(C#N)c5)ccc4=O)c3)nc2)CC1,> 10 µM,> 10 µM,> 10 µM,> 10 µM,> 10 µM,103%,110%,93.3%,101%,110%,102%,97.8%,95.7%,95.9%,106%,96.1%,99.7%,93.8%,100%,94.9%,96.3%,97.4%,106%,99%,102%,106%,93.4%,106%,95.2%,99.2%,0,0,0,0,0
COc1cc2c(Oc3ccc(NC(=O)C4(C(=O)Nc5ccc(F)cc5)CC4)cc3F)ccnc2cc1OCCCN1CCOCC1 [foretinib],1.92 µM,1.52 µM,1.37 µM,1.55 µM,0.965 µM,99.7%,98.6%,96.9%,84.7%,5.1%,102%,97.9%,102%,74.3%,0.2%,102%,98.6%,97.2%,70.3%,5.3%,103%,99.1%,94.2%,75.1%,0%,94.7%,95.7%,101%,47.8%,0.1%,7.8,9.4,9.5,9.3,11.9
O=S(=O)(c1ccccc1)N(CC(F)(F)F)c1ccc(C(O)(C(F)(F)F)C(F)(F)F)cc1,> 10 µM,> 10 µM,> 10 µM,> 10 µM,> 10 µM,107%,96.5%,99.2%,98.2%,99.7%,103%,102%,98.1%,101%,98.8%,96%,89.8%,93.9%,87.5%,87.5%,104%,101%,102%,97.7%,96.5%,97.1%,107%,94.3%,87.4%,78.3%,0,0,0.5,0,1.8
Cc1cc(NCCO)nc(-c2ccc(Br)cc2)n1,> 10 µM,> 10 µM,> 10 µM,> 10 µM,> 10 µM,105%,87.6%,99.5%,109%,98.1%,102%,101%,93.1%,93.9%,84.6%,95.3%,91.8%,104%,93.1%,97%,99.5%,100%,99.7%,95.8%,99.7%,97.4%,98.9%,86.9%,95.8%,94.3%,0,0.3,0,0,0
CC(=O)OCC(=O)[C@H]1CC[C@H]2[C@@H]3CCC4=CC(=O)CC[C@]4(C)[C@H]3CC[C@]12C [deoxycorticosterone-acetate],> 10 µM,> 10 µM,> 10 µM,> 10 µM,> 10 µM,98.4%,99.8%,100%,91.9%,107%,100%,99.8%,96.2%,98.7%,91.7%,85.4%,114%,100%,122%,101%,96.8%,100%,103%,102%,99.2%,107%,110%,95.9%,91.5%,107%,0,0,0,0,0
Nc1ccc([As](=O)(O)O)cc1 [arsanilic-acid],> 10 µM,> 10 µM,> 10 µM,> 10 µM,> 10 µM,114%,87.2%,101%,98.1%,97.7%,99.5%,98.8%,95.4%,97.1%,96.4%,108%,81.2%,86.6%,81.9%,95.8%,107%,107%,104%,97.5%,103%,110%,103%,98.2%,99.3%,104%,0,0,6,0,0
O=C1CCc2cc(OCCCCc3nnnn3C3CCCCC3)ccc2N1 [cilostazol],> 10 µM,> 10 µM,> 10 µM,> 10 µM,> 10 µM,94.3%,107%,99.1%,115%,111%,91.5%,99%,96.9%,101%,95.7%,97.5%,104%,99.7%,101%,90.3%,93.2%,96.9%,94%,96.5%,95%,114%,99.9%,110%,99.4%,92.6%,0,0,0,0,0
CCNC(=O)CCC/C=C\C[C@@H]1[C@@H](/C=C/[C@@H](O)CCc2ccccc2)[C@H](O)C[C@@H]1O [bimatoprost],> 10 µM,> 10 µM,> 10 µM,> 10 µM,> 10 µM,113%,97.6%,101%,100%,101%,97.7%,105%,96.1%,100%,106%,97.5%,89.8%,106%,92.2%,101%,102%,93.3%,103%,96.4%,107%,88.6%,93%,95.1%,107%,105%,0,0,0,0,0
N=C(N)Nc1ccc2[nH]c3c(c2c1)C[C@@]1(O)[C@H]2Cc4ccc(O)c5c4[C@@]1(CCN2CC1CC1)[C@H]3O5 [GNTI],> 10 µM,> 10 µM,> 10 µM,> 10 µM,> 10 µM,93.8%,92.7%,98.3%,102%,106%,101%,97.4%,104%,104%,101%,99.7%,95.2%,99.4%,95.6%,102%,99.7%,93.5%,101%,101%,104%,99%,122%,111%,98.2%,88.1%,0,0,0,0,0.1
Cc1ccc(Cl)cc1N(CC(=O)Nc1c(F)cccc1F)S(C)(=O)=O [FPH1-(BRD-6125)],> 10 µM,> 10 µM,> 10 µM,> 10 µM,> 10 µM,110%,93.4%,97.8%,105%,87.3%,98.3%,103%,97.6%,97.2%,99.1%,104%,97.2%,111%,99.7%,107%,97.7%,103%,105%,101%,97.8%,100%,107%,104%,94.5%,108%,0,0,0,0,0
CCn1cc(C(=O)O)c(=O)c2cc(F)c(N3CCNCC3)cc21 [norfloxacin],> 10 µM,> 10 µM,> 10 µM,> 10 µM,> 10 µM,93.9%,83.9%,92.2%,91.3%,104%,93.1%,99.3%,94.8%,94.1%,104%,104%,93.9%,96.1%,106%,103%,100%,99.1%,97.9%,104%,105%,100%,98.5%,102%,100%,101%,0,0,0,0,0
